From patent US20220332701A1, “HETEROCYCLIC COMPOUNDS AS BCR-ABL INHIBITORS” (ASCENTAGE PHARMA (SUZHOU) CO., LTD., priority 2019, published 2022) come the findings set out here.

In one experiment the target is BaF3(T315I) (Homo sapiens, UniProt P00519, T315I, cells depend on it). As to the kind of experiment: WST (CCK-8) anti-proliferation assay, BaF3 T315I cells. The conditions noted are these: read-out: BaF3(T315I); anti-proliferative IC50, 72 h treatment, CCK-8, BaF3 T315I.
Another experiment concerns the target BaF3(WT) (Homo sapiens, UniProt P00519). As to the kind of experiment: WST (CCK-8) anti-proliferation assay, BaF3 WT cells. Conditions: read-out: BaF3(WT); anti-proliferative IC50, 72 h treatment, CCK-8, BaF3 WT.

Method for BaF3(T315I): The anti-proliferative effect of representative Compounds of the Disclosure was determined by a water-soluble tetrazolium (WST)-based assay using Cell Counting Kit-8 (CCK-8). Cells were seeded in 96-well plates and treated with different concentrations of test articles for 72 h. Each treatment was tested in triplicates. Briefly, a series of 9 concentrations were chosen for each test article and added at 100 μl/well into a 96-well plate. Each concentration was tested in triplicates. 100 μl of diluent was added into 3-6 wells in the same plate for cell control group, and another set of 3-6 wells was used as a blank control.
In each well, 100 μl of cell suspension (containing optimal cell numbers, which creates approximately 100% confluence of cells in control wells based on by the absorbance (OD) value) was dispensed into the same 96-well plate except for the blank well. The plate was then cultured at 37° C. in an incubator in an atmosphere with 5% CO2 for 72 h. At the end of treatments, 20 μl/well of CCK-8 reagent was directly added to each wells. The plate was then incubated at 37° C. in an incubator in an atmosphere with 5% CO2 for 2-4 hour.
The cells viability was calculated using the mean OD value of triplicated wells following the equation below: (OD sample−OD blank)/(OD cell control−OD blank)×100 IC50 values were calculated with Graphpad Prism 6.0 software using nonlinear regression (curve fitting) type data analysis.

In the case of `CS(=O)(=O)N1CCc2cc(C(=O)Nc3ccc(OC(F)(F)Cl)cc3)cc(-c3ccn[nH]3)c21` [VII-9, N-(4-(chlorodifluoromethoxy)phenyl)-1-(methylsulfonyl)-7-(1H-pyrazol-5-yl) indoline-5-carboxamide], the GI50 at BaF3(T315I) turned out to be 4960 nM; at BaF3(WT) it was 403 nM.

As to `O=C(Nc1ccc(OC(F)(F)Cl)cc1)c1cc2c(c(-c3ccn[nH]3)c1)C1(CCCC1)C(=O)N2` [V-3, N-(4-(chlorodifluoromethoxy)phenyl)-2′-oxo-4′-(1H-pyrazol-5-yl)spiro[cyclopentane-1,3′-indoline]-6′-carboxamide], the GI50 on BaF3(T315I) turned out to be 136 nM; at BaF3(WT), 22 nM.

As to `CC1(C)c2c(cc(C(=O)Nc3ccc(OC(F)(F)Cl)cc3)cc2-c2ccn[nH]2)C(=O)N1CCN1CC[C@@H](O)C1` [IV-8, (R)—N-(4-(chlorodifluoromethoxy)phenyl)-2-(2-(3-hydroxypyrrolidin-1-yl)ethyl)-1,1-dimethyl-3-oxo-7-(1H-pyrazol-5-yl)isoindoline-5-carboxamide], the figures for the GI50 on BaF3(T315I) and at BaF3(WT) were 6020 nM and 100 nM, respectively.

Take `CN1CC(C)(C)c2c(-c3ccn[nH]3)cc(C(=O)Nc3ccc(OC(F)(F)Cl)cc3)cc21` [III-2, N-(4-(chlorodifluoromethoxy)phenyl)-1,3,3-trimethyl-4-(1H-pyrazol-5-yl)indoline-6-carboxamide]: the GI50 on BaF3(T315I) was 2060 nM; at BaF3(WT) it was 78 nM.

Take `CC(C)N1CCc2cc(C(=O)Nc3ccc(OC(F)(F)Cl)cc3)cc(-c3cncnc3)c21` [VII-4, N-(4-(chlorodifluoromethoxy)phenyl)-1-isopropyl-7-(pyrimidin-5-yl)indoline-5-carboxamide]: the GI50 was found to be 136 nM on BaF3(T315I) and 42 nM on BaF3(WT).

In the case of `CC(C)N1c2c(cc(C(=O)Nc3ccc(OC(F)(F)Cl)cc3)cc2-c2ccn[nH]2)CC1C(=O)NCCN(C)C` (stereo not drawn) [VII-32, N5-(4-(chlorodifluoromethoxy)phenyl)-N2-(2-(dimethylamino)ethyl)-1-isopropyl-7-(1H-pyrazol-5-yl)indoline-2,5-dicarboxamide], the GI50 on BaF3(T315I) was found to be 2160 nM; on BaF3(WT), 308 nM.

With `O=C(Nc1ccc(OC(F)(F)Cl)cc1)c1cc2c(c(-c3ccn[nH]3)c1)C1(CCCCC1)C(=O)N2` [V-11, N-(4-(chlorodifluoromethoxy)phenyl)-2′-oxo-4′-(1H-pyrazol-5-yl)spiro[cyclohexane-1,3′-indoline]-6′-carboxamide], the GI50 came to 40 nM at BaF3(T315I) and 8 nM on BaF3(WT).

For `CC(C)n1cc(Cl)c2cc(C(=O)Nc3ccc(OC(F)(F)Cl)cc3)cc(-c3ccn[nH]3)c21` [XII-3, 3-chloro-N-(4-(chlorodifluoromethoxy)phenyl)-1-isopropyl-7-(1H-pyrazol-5-yl)-1H-indole-5-carboxamide], the GI50 at BaF3(T315I) is 3270 nM; at BaF3(WT) it was 505 nM.

As to `CC1(C)C(=O)N(CCO)c2cc(C(=O)Nc3ccc(OC(F)(F)Cl)cc3)cc(-c3ccn[nH]3)c21` [V-6, N-(4-(chlorodifluoromethoxy)phenyl)-1-(2-hydroxyethyl)-3,3-dimethyl-2-oxo-4-(1H-pyrazol-5-yl)indoline-6-carboxamide], the values for the GI50 on BaF3(T315I) and on BaF3(WT) were 2860 nM and 364 nM, respectively.

As for `CC(C)N1CC(C)(C)c2cc(C(=O)Nc3ccc(OC(F)(F)Cl)cc3)cc(-c3ccn[nH]3)c21` [VII-40, N-(4-(chlorodifluoromethoxy)phenyl)-1-isopropyl-3,3-dimethyl-7-(1H-pyrazol-5-yl)indoline-5-carboxamide], the values for the GI50 on BaF3(T315I) and on BaF3(WT) were 256 nM and 20 nM, respectively.

Regarding `CC1CN(C(C)C)c2c(-c3cncnc3)cc(C(=O)Nc3ccc(OC(F)(F)Cl)cc3)cc21` (stereo not drawn) [VII-37, N-(4-(chlorodifluoromethoxy)phenyl)-1-isopropyl-3-methyl-7-(pyrimidin-5-yl)indoline-5-carboxamide], the GI50 was found to be 395 nM on BaF3(T315I) and 41 nM on BaF3(WT).

With `O=C(Nc1ccc(OC(F)(F)Cl)cc1)c1cc2c(c(-c3ccn[nH]3)c1)N(C1CC1)CC2` [VII-5, N-(4-(chlorodifluoromethoxy)phenyl)-1-cyclopropyl-7-(1H-pyrazol-5-yl) indoline-5-carboxamide], the GI50 is 295 nM on BaF3(T315I) and 34 nM at BaF3(WT).

As for `CCC1c2cc(C(=O)Nc3ccc(OC(F)(F)Cl)cc3)cc(-c3ccn[nH]3)c2N(C(C)C)C1CNC` (stereo not drawn) [VII-24, N-(4-(chlorodifluoromethoxy)phenyl)-3-ethyl-1-isopropyl-2-((methylamino)methyl)-7-(1H-pyrazol-5-yl)indoline-5-carboxamide], the GI50 at BaF3(T315I) amounted to 3860 nM; at BaF3(WT), 1690 nM.

As to `CC(C)N1c2c(cc(C(=O)Nc3ccc(OC(F)(F)Cl)cc3)cc2-c2ccn[nH]2)CC1C(=O)N1CCS(=O)(=O)CC1` (stereo not drawn) [VII-31, N-(4-(chlorodifluoromethoxy)phenyl)-2-(1,1-dioxidothiomorpholine-4-carbonyl)-1-isopropyl-7-(1H-pyrazol-5-yl)indoline-5-carboxamide], the values for the GI50 on BaF3(T315I) and on BaF3(WT) were 423 nM and 78 nM, respectively.

With `CN1C(=O)C(C)(C)c2cc(C(=O)Nc3ccc(OC(F)(F)Cl)cc3)cc(-c3ccn[nH]3)c21` [VIII-1, N-(4-(chlorodifluoromethoxy)phenyl)-1,3,3-trimethyl-2-oxo-7-(1H-pyrazol-5-yl)indoline-5-carboxamide], the GI50 at BaF3(T315I) worked out at 3680 nM; on BaF3(WT) it was 458 nM.

On to `CNCC1CN(C(C)C)c2c(-c3ccn[nH]3)cc(C(=O)Nc3ccc(OC(F)(F)Cl)cc3)cc21` (stereo not drawn) [VII-28, N-(4-(chlorodifluoromethoxy)phenyl)-1-isopropyl-3-((methylamino)methyl)-7-(1H-pyrazol-5-yl)indoline-5-carboxamide], for which the GI50 came to 575 nM at BaF3(T315I) and 132 nM on BaF3(WT).

For the molecule `CC1(C)CNc2cc(C(=O)Nc3ccc(OC(F)(F)Cl)cc3)cc(-c3ccn[nH]3)c21` [III-3, N-(4-(chlorodifluoromethoxy)phenyl)-3,3-dimethyl-4-(1H-pyrazol-5-yl)indoline-6-carboxamide], the GI50 was found to be 790 nM at BaF3(T315I) and 94 nM at BaF3(WT).

Regarding `CC(C)n1cc(Cl)c2cc(C(=O)Nc3ccc(OC(F)(F)Cl)cc3)cc(-c3cncnc3)c21` [XII-4, 3-chloro-N-(4-(chlorodifluoromethoxy)phenyl)-1-isopropyl-7-(pyrimidin-5-yl)-1H-indole-5-carboxamide], the GI50 was 726 nM at BaF3(T315I) and 128 nM at BaF3(WT).

Consider `CC1CN(C)c2c(-c3ccn[nH]3)cc(C(=O)Nc3ccc(OC(F)(F)Cl)cc3)cc21` (stereo not drawn) [VII-39, N-(4-(chlorodifluoromethoxy)phenyl)-1,3-dimethyl-7-(1H-pyrazol-5-yl)indoline-5-carboxamide], for which the GI50 was 1050 nM at BaF3(T315I) and 62 nM on BaF3(WT).

Consider `Cc1cn(C(C)C)c2c(-c3cncnc3)cc(C(=O)Nc3ccc(OC(F)(F)Cl)cc3)cc12` [XII-5, N-(4-(chlorodifluoromethoxy)phenyl)-1-isopropyl-3-methyl-7-(pyrimidin-5-yl)-1H-indole-5-carboxamide], for which the GI50 at BaF3(T315I) was 3180 nM; at BaF3(WT), 103 nM.

Regarding `CC1(C)c2c(cc(C(=O)Nc3ccc(OC(F)(F)Cl)cc3)cc2-c2ccn[nH]2)C(=O)N1CCN1CCS(=O)(=O)CC1` [IV-7, N-(4-(chlorodifluoromethoxy)phenyl)-2-(2-(1,1-dioxidothiomorpholino)ethyl)-1,1-dimethyl-3-oxo-7-(1H-pyrazol-5-yl)isoindoline-5-carboxamide], the GI50 at BaF3(T315I) amounted to 1750 nM; at BaF3(WT), 364 nM.
